# In patent US11104674B2 (Hoffmann-La Roche Inc., priority 2016, dated 2021):
# Test system: HBsAg
# Assay: HBsAg assay (chemiluminescence immunoassay of secreted HBsAg)
# Format: cell-based, HBV
# Settings: Hepatitis B virus, HepG2.2.15, HBsAg secretion, HepG2.2.15 cells, CLIA of culture supernatant
# Method: HepG2.2.15 cells (Acs et al. Proc Natl Acad Sci USA, 84, (1987), 4641-4), a constitutively HBV-expressing cell line were cultured in DMEM+Glutamax-I medium (Invitrogen, Carlsbad, Calif., USA), supplemented with 10% fetal bovine serum (Invitrogen) and G418 (Invitrogen) at a final concentration of 200 mg/L and maintained in 5% CO2 at 37° C.
# HepG2.2.15 cells were seeded in duplicate into white, 96-well plates at 1.5×10^4 cells/well. The cells were treated with a three-fold serial dilution series of the compounds in DMSO. The final DMSO concentration in all wells was 1% and DMSO was used as no drug control.
# The HBsAg chemiluminescence immunoassay (CLIA) kit (Autobio Diagnostics Co., Zhengzhou, China, Catalog number: CL0310-2) was used to measure the levels of secreted HBV antigens semi-quantitatively. For the detection 50 μL/well culture supernatant was used and HBsAg was quantified using HBsAg chemiluminescence immunoassay (CLIA) kit (Autobio Diagnostics Co., Zhengzhou, China, Catalog number: CL0310-2), 50 μL of the supernatant was transferred to the CLIA assay plate and 50 μL of enzyme conjugate reagent was added into each well. The plates were sealed and gently agitated for 1 hour at room temperature. The supernatant-enzyme-mixture was discarded and wells were washed 6 times with 300 μL of PBS.
# The residual liquid was removed by plating the CLIA plate right side down on absorbent tissue paper. 25 μL of substrates A and B were added to each well. Luminance was measured using a luminometer (Mithras LB 940 Multimode Microplate Reader) after 10 minutes incubation. Dose-response curves were generated and the IC50 value was extrapolated by using the E-WorkBook Suite (ID Business Solutions Ltd., Guildford, UK). The IC50 was defined as the compound concentration (or conditioned media log dilution) at which HBsAg secretion was reduced by 50% compared to the no drug control.
# The compounds according to formula I were tested for their capacity to inhibit HBsAg as described herein.
row,Structure (SMILES),IC50 [nM]
1,"CC1c2cnc(-c3ncccn3)nc2CCN1c1cc(F)cc(N2CCOC(C(N)=O)C2)n1 (stereo not drawn) [Example 47, 4-[4-fluoro-6-(5-methyl-2-pyrimidin-2-yl-7,8-dihydro-5H-pyrido[4,3-d]pyrimidin-6-yl)-2-pyridyl]morpholine-2-carboxamide]",33
2,"CC1c2cnc(-c3ncccn3)nc2CCN1c1cc(F)cc(N2CC3(COC3)C2)n1 (stereo not drawn) [Example 129, 6-[4-fluoro-6-(5-methyl-2-pyrimidin-2-yl-7,8-dihydro-5H-pyrido[4,3-d]pyrimidin-6-yl)-2-pyridyl]-2-oxa-6-azaspiro[3.3]heptane]",36
3,"CC1c2cnc(-c3ncccn3)nc2CCN1c1cc(N2CCNC2=O)cc(F)n1 (stereo not drawn) [Example 157, 1-[2-Fluoro-6-(5-methyl-2-pyrimidin-2-yl-7,8-dihydro-5H-pyrido[4,3-d]pyrimidin-6-yl)-4-pyridyl]imidazolidin-2-one]",6
4,"CC(=O)N(C)c1cc(F)nc(N2CCc3nc(-c4ncccn4)ncc3C2C)c1 (stereo not drawn) [Example 154, N-[2-Fluoro-6-(5-methyl-2-pyrimidin-2-yl-7,8-dihydro-5H-pyrido[4,3-d]pyrimidin-6-yl)-4-pyridyl]-N-methyl-acetamide]",69
5,"CCC1CN(c2cc(F)cc(N3CCc4nc(-c5ncccn5)ncc4C3C)n2)CCO1 (stereo not drawn) [Example 7, 2-ethyl-4-[4-fluoro-6-(5-methyl-2-pyrimidin-2-yl-7,8-dihydro-5H-pyrido[4,3-d]pyrimidin-6-yl)-2-pyridyl]morpholine]",42
6,"CC1c2cnc(-c3ncccn3)nc2CCN1c1cc(N2CCC(O)C2)cc(F)n1 (stereo not drawn) [Example 36, 1-[2-fluoro-6-(5-methyl-2-pyrimidin-2-yl-7,8-dihydro-5H-pyrido[4,3-d]pyrimidin-6-yl)-4-pyridyl]pyrrolidin-3-ol]",12
7,"CC1CN(c2cc(F)cc(N3CCc4nc(-c5ncccn5)ncc4C3C)n2)CC(=O)N1 (stereo not drawn) [Example 133, 4-[4-fluoro-6-(5-methyl-2-pyrimidin-2-yl-7,8-dihydro-5H-pyrido[4,3-d]pyrimidin-6-yl)-2-pyridyl]-6-methyl-piperazin-2-one]",9
8,"CC1C(=O)NCCN1c1cc(F)cc(N2CCc3nc(-c4ncccn4)ncc3C2C)n1 (stereo not drawn) [Example 116, 4-[4-fluoro-6-(5-methyl-2-pyrimidin-2-yl-7,8-dihydro-5H-pyrido[4,3-d]pyrimidin-6-yl)-2-pyridyl]-3-methyl-piperazin-2-one]",103
9,"COCC1CN(c2cc(F)nc(N3CCc4nc(-c5ncccn5)ncc4C3C)c2)CCO1 (stereo not drawn) [Example 14, 4-[2-fluoro-6-(5-methyl-2-pyrimidin-2-yl-7,8-dihydro-5H-pyrido[4,3-d]pyrimidin-6-yl)-4-pyridyl]-2-(methoxymethyl)morpholine]",17
10,"CC1c2cnc(-c3ncccn3)nc2CCN1c1cc(NCCCCCC(=O)O)cc(F)n1 (stereo not drawn) [Example 1, 6-[[2-fluoro-6-(5-methyl-2-pyrimidin-2-yl-7,8-dihydro-5H-pyrido[4,3-d]pyrimidin-6-yl)-4-pyridyl]amino]hexanoic acid]",1500
11,"CC1c2cnc(-c3ncccn3)nc2CCN1c1cc(NCCCCC(N)=O)cc(F)n1 (stereo not drawn) [Example 137, 5-[[2-Fluoro-6-(5-methyl-2-pyrimidin-2-yl-7,8-dihydro-5H-pyrido[4,3-d]pyrimidin-6-yl)-4-pyridyl]amino]pentanamide]",120
12,"CC1c2cnc(-c3ncccn3)nc2CCN1c1cc(N2CCN(S(C)(=O)=O)C(C)C2)cc(F)n1 (stereo not drawn) [Example 106, 6-[6-fluoro-4-(3-methyl-4-methylsulfonyl-piperazin-1-yl)-2-pyridyl]-5-methyl-2-pyrimidin-2-yl-7,8-dihydro-5H-pyrido[4,3-d]pyrimidine]",7
13,"CC1c2cnc(-c3ncccn3)nc2CCN1c1cc(F)cc(N2CC(C(=O)NS(C)(=O)=O)C2)n1 (stereo not drawn) [Example 63, 1-[4-fluoro-6-(5-methyl-2-pyrimidin-2-yl-7,8-dihydro-5H-pyrido[4,3-d]pyrimidin-6-yl)-2-pyridyl]-N-methylsulfonyl-azetidine-3-carboxamide]",5420
14,"CC1c2cnc(-c3ncccn3)nc2CCN1c1cc(N2CC3(COC3)C2)cc(F)n1 (stereo not drawn) [Example 130, 6-[2-fluoro-6-(5-methyl-2-pyrimidin-2-yl-7,8-dihydro-5H-pyrido[4,3-d]pyrimidin-6-yl)-4-pyridyl]-2-oxa-6-azaspiro[3.3]heptane]",12
15,"CC(=O)N1CCN(c2cc(F)cc(N3CCc4nc(-c5ncccn5)ncc4C3C)n2)CC1 (stereo not drawn) [Example 17, 1-[4-[4-fluoro-6-(5-methyl-2-pyrimidin-2-yl-7,8-dihydro-5H-pyrido[4,3-d]pyrimidin-6-yl)-2-pyridyl]piperazin-1-yl]ethanone]",15
16,"CC1C(=O)NCCN1c1cc(F)nc(N2CCc3nc(-c4ncccn4)ncc3C2C)c1 (stereo not drawn) [Example 117, 4-[2-fluoro-6-(5-methyl-2-pyrimidin-2-yl-7,8-dihydro-5H-pyrido[4,3-d]pyrimidin-6-yl)-4-pyridyl]-3-methyl-piperazin-2-one]",106
17,"CC1c2cnc(-c3ncccn3)nc2CCN1c1cc(F)cc(N2CCN(S(C)(=O)=O)C(C)C2)n1 (stereo not drawn) [Example 105, 6-[4-fluoro-6-(3-methyl-4-methylsulfonyl-piperazin-1-yl)-2-pyridyl]-5-methyl-2-pyrimidin-2-yl-7,8-dihydro-5H-pyrido[4,3-d]pyrimidine]",23
18,"CC1c2cnc(-c3ncccn3)nc2CCN1c1cc(F)cc(N2CCN(S(C)(=O)=O)CC2)n1 (stereo not drawn) [Example 57, 6-[4-fluoro-6-(4-methylsulfonylpiperazin-1-yl)-2-pyridyl]-5-methyl-2-pyrimidin-2-yl-7,8-dihydro-5H-pyrido[4,3-d]pyrimidine]",28
19,"CC1c2cnc(-c3ncccn3)nc2CCN1c1cc(F)cc(N(C)CCCCC(N)=O)n1 (stereo not drawn) [Example 142, 5-[[4-fluoro-6-(5-methyl-2-pyrimidin-2-yl-7,8-dihydro-5H-pyrido[4,3-d]pyrimidin-6-yl)-2-pyridyl]-methyl-amino]pentanamide]",25
20,"CC1c2cnc(-c3ncccn3)nc2CCN1c1cc(F)cc(N2CC(C(=O)O)C(C)(C)C2)n1 (stereo not drawn) [Example 92, 1-[4-fluoro-6-(5-methyl-2-pyrimidin-2-yl-7,8-dihydro-5H-pyrido[4,3-d]pyrimidin-6-yl)-2-pyridyl]-4,4-dimethyl-pyrrolidine-3-carboxylic acid]",139
21,"CC1c2cnc(-c3ncccn3)nc2CCN1c1cc(N(C)S(C)(=O)=O)cc(F)n1 (stereo not drawn) [Example 159, N-[2-fluoro-6-(5-methyl-2-pyrimidin-2-yl-7,8-dihydro-5H-pyrido[4,3-d]pyrimidin-6-yl)-4-pyridyl]-N-methyl-methanesulfonamide]",14
22,"CC1c2cnc(-c3ccccn3)nc2CCN1c1cc(F)cc(N2CCC(C(=O)O)C2)n1 (stereo not drawn) [Example 67, 1-[4-fluoro-6-[5-methyl-2-(2-pyridyl)-7,8-dihydro-5H-pyrido[4,3-d]pyrimidin-6-yl]-2-pyridyl]pyrrolidine-3-carboxylic acid]",532
23,"COC1CCN(c2cc(F)cc(N3CCc4nc(-c5ccccn5)ncc4C3C)n2)C1 (stereo not drawn) [Example 84, 6-[4-fluoro-6-(3-methoxypyrrolidin-1-yl)-2-pyridyl]-5-methyl-2-(2-pyridyl)-7,8-dihydro-5H-pyrido[4,3-d]pyrimidine]",23
24,"CC1c2cnc(-c3ccccn3)nc2CCN1c1cc(N2CCC(O)C2)cc(F)n1 (stereo not drawn) [Example 60, 1-[2-fluoro-6-[5-methyl-2-(2-pyridyl)-7,8-dihydro-5H-pyrido[4,3-d]pyrimidin-6-yl]-4-pyridyl]pyrrolidin-3-ol]",23
